Results taken from PubChem BioAssay (NCI).
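GI50 is the concentration that inhibits growth by half. TGI is the concentration that stops growth completely.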

Key:
Assay in all cases: inhibition of tumour cell growth, NCI panel, 384-well format
MALME-3M melanoma = system: MALME-3M melanoma
NCI-H322M lung = system: NCI-H322M lung
MDA-MB-468 breast = system: MDA-MB-468 breast
A549 NSCLC = system: A549 NSCLC
HCC-2998 colon = system: HCC-2998 colon
SF-268 CNS = system: SF-268 CNS
K-562 leukemia = system: K-562 leukemia
MDA-MB-231 breast = system: MDA-MB-231 breast
SK-MEL-28 melanoma = system: SK-MEL-28 melanoma
SK-OV-3 ovarian = system: SK-OV-3 ovarian
RPMI-8226 leukemia = system: RPMI-8226 leukemia
SNB-75 CNS = system: SNB-75 CNS
A498 renal = system: A498 renal
CAKI-1 renal = system: CAKI-1 renal
IGROV1 ovarian = system: IGROV1 ovarian
HL-60(TB) leukemia = system: HL-60(TB) leukemia
SW-620 colon = system: SW-620 colon
SK-MEL-5 melanoma = system: SK-MEL-5 melanoma
NCI/ADR-RES ovarian = system: NCI/ADR-RES ovarian
HS 578T breast = system: HS 578T breast
SR leukemia = system: SR leukemia
HCT-15 colon = system: HCT-15 colon
SF-539 CNS = system: SF-539 CNS
LOX IMVI melanoma = system: LOX IMVI melanoma
HT29 colon = system: HT29 colon
U251 glioblastoma = system: U251 glioblastoma
OVCAR-5 ovarian = system: OVCAR-5 ovarian
MCF7 breast = system: MCF7 breast
PC-3 prostate = system: PC-3 prostate
NCI-H226 lung = system: NCI-H226 lung
NCI-H522 lung = system: NCI-H522 lung
HCT-116 colon = system: HCT-116 colon
KM12 colon = system: KM12 colon
OVCAR-3 ovarian = system: OVCAR-3 ovarian
RXF 393 renal = system: RXF 393 renal
EKVX NSCLC = system: EKVX NSCLC
MOLT-4 leukemia = system: MOLT-4 leukemia
NCI-H460 NSCLC = system: NCI-H460 NSCLC
BT-549 breast = system: BT-549 breast
MDA-MB-435 melanoma = system: MDA-MB-435 melanoma
T-47D breast = system: T-47D breast
UO-31 renal = system: UO-31 renal
UACC-257 melanoma = system: UACC-257 melanoma
SN12C renal = system: SN12C renal
COLO 205 colon = system: COLO 205 colon
SNB-19 CNS = system: SNB-19 CNS

Cc1c(F)c(N)c2c(=O)cc(-c3ccc(N)c(F)c3)oc2c1F
GI50 (MALME-3M melanoma): 28.6 µM
TGI (MALME-3M melanoma): 86.5 µM
GI50 (NCI-H322M lung): 24.3 µM
TGI (NCI-H322M lung): > 100 µM
GI50 (MDA-MB-468 breast): < 0.01 µM
GI50 (A549 NSCLC): 29.9 µM
TGI (A549 NSCLC): > 100 µM
GI50 (HCC-2998 colon): < 0.01 µM
TGI (HCC-2998 colon): > 100 µM
GI50 (SF-268 CNS): 23.2 µM
TGI (SF-268 CNS): 97.6 µM
GI50 (K-562 leukemia): 1.75 µM
GI50 (MDA-MB-231 breast): 26.7 µM
TGI (MDA-MB-231 breast): > 100 µM
GI50 (SK-MEL-28 melanoma): > 100 µM
TGI (SK-MEL-28 melanoma): > 100 µM
GI50 (SK-OV-3 ovarian): 29.3 µM
TGI (SK-OV-3 ovarian): > 100 µM
GI50 (RPMI-8226 leukemia): 14.2 µM
TGI (RPMI-8226 leukemia): > 100 µM
GI50 (SNB-75 CNS): 10.8 µM
TGI (SNB-75 CNS): 25.2 µM
GI50 (A498 renal): < 0.01 µM
TGI (A498 renal): 0.13 µM
GI50 (CAKI-1 renal): < 0.01 µM
TGI (CAKI-1 renal): > 100 µM
GI50 (IGROV1 ovarian): < 0.01 µM
GI50 (HL-60(TB) leukemia): 0.157 µM
TGI (HL-60(TB) leukemia): > 100 µM
GI50 (SW-620 colon): > 100 µM
TGI (SW-620 colon): > 100 µM
GI50 (SK-MEL-5 melanoma): < 0.01 µM
TGI (SK-MEL-5 melanoma): > 100 µM
GI50 (NCI/ADR-RES ovarian): 14.1 µM
TGI (NCI/ADR-RES ovarian): > 100 µM
GI50 (HS 578T breast): 10.7 µM
TGI (HS 578T breast): 29.5 µM
GI50 (SR leukemia): 4.12 µM
TGI (SR leukemia): > 100 µM
GI50 (HCT-15 colon): > 100 µM
TGI (HCT-15 colon): > 100 µM
GI50 (SF-539 CNS): 28 µM
TGI (SF-539 CNS): > 100 µM
GI50 (LOX IMVI melanoma): > 100 µM
TGI (LOX IMVI melanoma): > 100 µM
GI50 (HT29 colon): > 100 µM
TGI (HT29 colon): > 100 µM
GI50 (U251 glioblastoma): 18 µM
TGI (U251 glioblastoma): > 100 µM
GI50 (OVCAR-5 ovarian): < 0.01 µM
GI50 (MCF7 breast): < 0.01 µM
TGI (MCF7 breast): 0.0338 µM
GI50 (PC-3 prostate): > 100 µM
TGI (PC-3 prostate): > 100 µM
GI50 (NCI-H226 lung): < 0.01 µM
GI50 (NCI-H522 lung): 9.4 µM
TGI (NCI-H522 lung): 43.1 µM
GI50 (HCT-116 colon): 28 µM
TGI (HCT-116 colon): > 100 µM
GI50 (KM12 colon): 93 µM
TGI (KM12 colon): > 100 µM
GI50 (OVCAR-3 ovarian): 0.0251 µM
TGI (OVCAR-3 ovarian): 37.9 µM
GI50 (RXF 393 renal): 10.5 µM
TGI (RXF 393 renal): 31.5 µM
GI50 (EKVX NSCLC): 2.98 µM
TGI (EKVX NSCLC): > 100 µM
GI50 (MOLT-4 leukemia): 85.1 µM
TGI (MOLT-4 leukemia): > 100 µM
GI50 (NCI-H460 NSCLC): < 0.01 µM
TGI (NCI-H460 NSCLC): > 100 µM
GI50 (BT-549 breast): 16.4 µM
TGI (BT-549 breast): 40.4 µM
GI50 (MDA-MB-435 melanoma): 34.9 µM
TGI (MDA-MB-435 melanoma): > 100 µM

COc1cccc(OCCCN)c1-c1cc(Nc2cnc(C#N)cn2)n[nH]1
GI50 (T-47D breast): 1.83 µM
TGI (T-47D breast): 18.3 µM
TGI (MALME-3M melanoma): 0.0349 µM
TGI (UO-31 renal): 16.3 µM
TGI (MDA-MB-468 breast): 0.0116 µM
TGI (A549 NSCLC): 14.2 µM
GI50 (SF-268 CNS): 0.0249 µM
TGI (SF-268 CNS): 6.59 µM
GI50 (UACC-257 melanoma): 0.0181 µM
TGI (UACC-257 melanoma): 0.0814 µM
GI50 (MDA-MB-231 breast): 0.0353 µM
TGI (MDA-MB-231 breast): 5.25 µM
TGI (RPMI-8226 leukemia): 0.0278 µM
GI50 (SNB-75 CNS): 0.0171 µM
TGI (SNB-75 CNS): 0.49 µM
GI50 (SN12C renal): 0.0396 µM
TGI (SN12C renal): 0.761 µM
GI50 (CAKI-1 renal): 0.0354 µM
TGI (CAKI-1 renal): 2.62 µM
TGI (IGROV1 ovarian): 1.27 µM
GI50 (SW-620 colon): 0.0715 µM
TGI (SW-620 colon): 2.29 µM
GI50 (COLO 205 colon): 0.0169 µM
TGI (COLO 205 colon): 0.133 µM
GI50 (NCI/ADR-RES ovarian): 0.016 µM
TGI (NCI/ADR-RES ovarian): 0.0596 µM
GI50 (HCT-15 colon): 0.0121 µM
TGI (HCT-15 colon): 0.0288 µM
GI50 (LOX IMVI melanoma): 0.0234 µM
TGI (LOX IMVI melanoma): 0.847 µM
GI50 (HT29 colon): 0.0199 µM
TGI (HT29 colon): 0.145 µM
GI50 (U251 glioblastoma): 0.0255 µM
TGI (U251 glioblastoma): 11.9 µM
TGI (OVCAR-5 ovarian): 0.017 µM
TGI (MCF7 breast): 13.3 µM
GI50 (PC-3 prostate): 0.0559 µM
TGI (PC-3 prostate): 13.2 µM
GI50 (NCI-H226 lung): 5.36 µM
TGI (NCI-H226 lung): 18.8 µM
TGI (SNB-19 CNS): 0.122 µM
GI50 (NCI-H522 lung): 0.0352 µM
TGI (NCI-H522 lung): 0.833 µM
TGI (KM12 colon): 0.0867 µM
TGI (EKVX NSCLC): 12.7 µM
GI50 (NCI-H460 NSCLC): 0.0209 µM
TGI (NCI-H460 NSCLC): 0.121 µM
TGI (BT-549 breast): 0.0242 µM
